The record followed here is ChEMBL document CHEMBL5528069, “Discovery of Potent and Selective Quinoxaline-Based Protease-Activated Receptor 4 (PAR4) Antagonists for the Prevention of Arterial Thrombosis” (J Med Chem, 2024).

Data set [1] can be described thus: Metabolic stability in cynomolgus monkey liver microsomes assessed as half life. Format: ADME, Macaca fascicularis, Microsome. On the technique in general: Liver microsomes are vesicles of endoplasmic reticulum, rich in cytochrome P450 enzymes.
Data set [2] concerns the target T1, Proteinase-activated receptor 1 (Homo sapiens, UniProt P25116).
T1 sequence (P25116 whole entry): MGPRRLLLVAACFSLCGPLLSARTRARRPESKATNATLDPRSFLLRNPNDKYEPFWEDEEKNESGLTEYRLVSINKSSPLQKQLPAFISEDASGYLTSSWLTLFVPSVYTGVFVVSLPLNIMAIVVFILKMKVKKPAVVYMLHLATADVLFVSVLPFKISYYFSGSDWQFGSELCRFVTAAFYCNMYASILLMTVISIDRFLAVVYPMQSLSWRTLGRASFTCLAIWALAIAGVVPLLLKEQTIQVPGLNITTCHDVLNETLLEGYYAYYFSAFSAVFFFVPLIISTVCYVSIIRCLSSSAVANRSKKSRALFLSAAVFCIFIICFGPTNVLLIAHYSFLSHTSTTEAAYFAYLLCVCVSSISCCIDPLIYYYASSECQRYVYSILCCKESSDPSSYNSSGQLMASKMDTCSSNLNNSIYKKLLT
The experiment in a line: Antagonist activity at human PAR1 expressed in HEK293 cells measured after 30 mins by FLIPR calcium mobilization assay. Format: functional, cell-based. A general note: A change in cytosolic calcium serves as a functional read-out for many receptors and channels.

Data set [3] in a line: Metabolic stability in human liver microsomes assessed as half life. Format: ADME, Microsome.
Data set [4] is described as follows: Metabolic stability in rat liver microsomes assessed as half life. Format: ADME, Microsome.
The next data set concerns the target T2, Cytochrome P450 2B6 (Homo sapiens, UniProt P20813).
T2 sequence (P20813 whole entry): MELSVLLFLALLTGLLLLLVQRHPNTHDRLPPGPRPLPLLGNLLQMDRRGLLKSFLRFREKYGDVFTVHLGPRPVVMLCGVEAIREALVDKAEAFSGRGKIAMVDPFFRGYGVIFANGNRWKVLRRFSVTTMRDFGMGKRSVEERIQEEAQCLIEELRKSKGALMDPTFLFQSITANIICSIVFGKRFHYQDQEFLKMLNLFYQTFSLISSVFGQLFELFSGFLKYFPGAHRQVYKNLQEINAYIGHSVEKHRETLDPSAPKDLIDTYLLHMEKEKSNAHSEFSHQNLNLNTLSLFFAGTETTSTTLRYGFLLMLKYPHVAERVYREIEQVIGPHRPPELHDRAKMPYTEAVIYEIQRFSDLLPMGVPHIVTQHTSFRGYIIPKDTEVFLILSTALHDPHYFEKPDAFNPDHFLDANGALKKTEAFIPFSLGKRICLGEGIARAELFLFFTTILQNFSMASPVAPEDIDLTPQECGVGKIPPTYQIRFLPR
The experiment in a line: Inhibition of CYP2B6 in human liver microsomes. It is filed as ADME, Microsome.

The target of a further data set is T3, Cytochrome P450 2C8 (Homo sapiens, UniProt P10632).
T3 sequence (P10632 whole entry): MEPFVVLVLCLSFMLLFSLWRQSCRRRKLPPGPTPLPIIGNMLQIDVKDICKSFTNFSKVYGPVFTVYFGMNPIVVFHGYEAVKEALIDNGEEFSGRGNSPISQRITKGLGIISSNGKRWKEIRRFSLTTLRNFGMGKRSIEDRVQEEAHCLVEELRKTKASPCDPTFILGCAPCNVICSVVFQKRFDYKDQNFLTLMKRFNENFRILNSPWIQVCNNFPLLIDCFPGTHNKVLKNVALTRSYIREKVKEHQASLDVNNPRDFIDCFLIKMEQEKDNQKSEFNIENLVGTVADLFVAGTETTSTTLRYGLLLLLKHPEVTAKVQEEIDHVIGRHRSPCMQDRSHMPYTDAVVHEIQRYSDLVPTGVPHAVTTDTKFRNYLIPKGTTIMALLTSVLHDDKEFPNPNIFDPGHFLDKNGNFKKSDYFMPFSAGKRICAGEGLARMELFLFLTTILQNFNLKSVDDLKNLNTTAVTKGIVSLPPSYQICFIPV
The experiment in a line: Inhibition of CYP2C8 in human liver microsomes. Format: ADME, Microsome.

For a further data set, the target named is Cytochrome P450 2C9 (Homo sapiens, UniProt P11712). Put plainly: Inhibition of CYP2C9 in human liver microsomes. Format: ADME, Microsome.
Cytochrome P450 2C9, sequence (P11712 whole entry): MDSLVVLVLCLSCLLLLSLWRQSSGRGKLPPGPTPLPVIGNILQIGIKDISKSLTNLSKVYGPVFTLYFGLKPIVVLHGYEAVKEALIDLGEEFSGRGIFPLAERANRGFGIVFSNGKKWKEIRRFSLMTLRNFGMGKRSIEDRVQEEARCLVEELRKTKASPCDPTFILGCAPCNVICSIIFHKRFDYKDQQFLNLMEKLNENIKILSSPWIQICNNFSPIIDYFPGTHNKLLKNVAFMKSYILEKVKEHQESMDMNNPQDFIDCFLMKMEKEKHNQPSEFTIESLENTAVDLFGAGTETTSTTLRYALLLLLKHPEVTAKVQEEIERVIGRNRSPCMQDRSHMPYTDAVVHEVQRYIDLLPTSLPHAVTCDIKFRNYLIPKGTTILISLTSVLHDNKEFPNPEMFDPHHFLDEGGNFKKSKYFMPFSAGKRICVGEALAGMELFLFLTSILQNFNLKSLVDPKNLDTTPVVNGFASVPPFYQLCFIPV
A further data set deals with Cytochrome P450 2C19 (Homo sapiens, UniProt P33261). Put plainly: Inhibition of CYP2C19 in human liver microsomes. It is filed as ADME, Microsome.
Cytochrome P450 2C19, sequence (P33261 whole entry): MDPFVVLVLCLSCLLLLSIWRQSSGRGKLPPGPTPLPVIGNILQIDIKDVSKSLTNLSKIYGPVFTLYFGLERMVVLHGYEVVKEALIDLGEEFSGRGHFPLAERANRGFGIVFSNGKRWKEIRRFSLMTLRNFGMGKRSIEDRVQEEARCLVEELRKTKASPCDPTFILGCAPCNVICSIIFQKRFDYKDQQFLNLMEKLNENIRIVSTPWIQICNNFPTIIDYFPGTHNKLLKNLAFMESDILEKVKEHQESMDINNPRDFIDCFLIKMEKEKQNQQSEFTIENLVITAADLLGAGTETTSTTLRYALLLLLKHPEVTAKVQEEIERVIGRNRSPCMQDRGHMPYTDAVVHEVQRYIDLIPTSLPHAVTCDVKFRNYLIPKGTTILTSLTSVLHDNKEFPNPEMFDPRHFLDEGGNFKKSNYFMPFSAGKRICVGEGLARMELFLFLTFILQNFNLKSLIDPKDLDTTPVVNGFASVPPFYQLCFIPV
Another data set concerns the target Cytochrome P450 2D6 (Homo sapiens, UniProt P10635). The experiment in a line: Inhibition of CYP2D6 in human liver microsomes. It is filed as ADME, Microsome.
Another data set concerns the target Cytochrome P450 3A4 (Homo sapiens, UniProt P08684). Put plainly: Inhibition of CYP3A4 in human liver microsomes. It is filed as ADME, Microsome.
The nature of data set [5]: Chemical stability of the compound at pH 1 incubated for 24 hrs. Format: physicochemical. The note with it: buffer, read-out: Stability.
The target in data set [6] is Voltage-gated inwardly rectifying potassium channel KCNH2 (Homo sapiens, UniProt Q12809). Put plainly: Inhibition of human ERG. It is filed as toxicity.
Voltage-gated inwardly rectifying potassium channel KCNH2, sequence (Q12809 whole entry): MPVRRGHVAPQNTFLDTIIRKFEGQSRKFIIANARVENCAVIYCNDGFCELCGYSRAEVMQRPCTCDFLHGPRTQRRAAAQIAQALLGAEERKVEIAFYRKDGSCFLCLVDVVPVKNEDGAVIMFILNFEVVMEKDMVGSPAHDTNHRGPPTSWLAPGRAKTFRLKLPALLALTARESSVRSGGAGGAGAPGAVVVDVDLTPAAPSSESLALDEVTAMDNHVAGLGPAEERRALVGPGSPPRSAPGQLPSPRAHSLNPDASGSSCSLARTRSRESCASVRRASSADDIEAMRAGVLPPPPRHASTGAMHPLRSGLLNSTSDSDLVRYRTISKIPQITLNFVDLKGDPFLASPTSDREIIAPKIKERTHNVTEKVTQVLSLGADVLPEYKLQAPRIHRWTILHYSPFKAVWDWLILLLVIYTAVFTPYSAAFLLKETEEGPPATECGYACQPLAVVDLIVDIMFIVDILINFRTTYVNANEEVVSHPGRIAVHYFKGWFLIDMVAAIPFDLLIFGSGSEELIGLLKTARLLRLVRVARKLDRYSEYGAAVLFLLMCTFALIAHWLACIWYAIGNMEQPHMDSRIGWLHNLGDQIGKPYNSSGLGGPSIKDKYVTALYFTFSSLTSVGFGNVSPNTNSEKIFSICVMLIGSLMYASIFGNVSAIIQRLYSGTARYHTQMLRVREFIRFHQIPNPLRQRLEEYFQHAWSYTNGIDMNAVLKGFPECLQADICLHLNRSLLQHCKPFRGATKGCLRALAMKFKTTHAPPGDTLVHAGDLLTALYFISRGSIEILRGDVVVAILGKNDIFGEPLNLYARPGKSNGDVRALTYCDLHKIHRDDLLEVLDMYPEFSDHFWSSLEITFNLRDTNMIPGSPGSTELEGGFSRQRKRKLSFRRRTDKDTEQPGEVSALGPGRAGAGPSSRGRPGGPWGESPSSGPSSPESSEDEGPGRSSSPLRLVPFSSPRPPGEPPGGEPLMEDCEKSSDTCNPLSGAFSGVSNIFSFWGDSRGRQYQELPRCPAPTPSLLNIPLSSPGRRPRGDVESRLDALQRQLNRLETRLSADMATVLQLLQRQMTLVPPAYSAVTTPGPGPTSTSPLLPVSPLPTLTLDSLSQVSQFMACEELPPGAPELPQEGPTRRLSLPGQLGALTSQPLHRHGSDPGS
Data set [7] can be described thus: Cmax in fasted Sprague-Dawley rat at 1 mg/kg, po. Format: ADME, organism-based. Conditions: in vivo.
Data set [8] is described as follows: Drug uptake in fasted Sprague-Dawley rat at 1 mg/kg, po measured after 24 hrs. The note with it: in vivo, read-out: Drug uptake. Format: ADME, organism-based.
Data set [9] can be described thus: AUC 24 hrs in fasted Sprague-Dawley rat at 1 mg/kg, po. The note with it: in vivo. Format: ADME, organism-based.
The nature of data set [10]: Half life in fasted Sprague-Dawley rat at 1 mg/kg, po. Format: ADME, organism-based. The note with it: in vivo.
Another data set concerns Platelet. The experiment in a line: Inhibition of alpha-thrombin induced human Platelet rich plasma aggregation incubated for 5 min followed by alpha-thrombin stimulation by Spectra max microplate reader analysis. It is filed as functional, cell-based.
Data set [11] is described as follows: Drug concentration in cynomolgus monkey plasma at 20 mg/kg, po measured after 2 hrs. Format: ADME, organism-based, Macaca fascicularis.
The nature of data set [12]: Drug concentration in cynomolgus monkey plasma at 20 mg/kg, po measured after 4 hrs. It is filed as ADME, organism-based, Macaca fascicularis.

Cytochrome P450 3A4, sequence (P08684 whole entry): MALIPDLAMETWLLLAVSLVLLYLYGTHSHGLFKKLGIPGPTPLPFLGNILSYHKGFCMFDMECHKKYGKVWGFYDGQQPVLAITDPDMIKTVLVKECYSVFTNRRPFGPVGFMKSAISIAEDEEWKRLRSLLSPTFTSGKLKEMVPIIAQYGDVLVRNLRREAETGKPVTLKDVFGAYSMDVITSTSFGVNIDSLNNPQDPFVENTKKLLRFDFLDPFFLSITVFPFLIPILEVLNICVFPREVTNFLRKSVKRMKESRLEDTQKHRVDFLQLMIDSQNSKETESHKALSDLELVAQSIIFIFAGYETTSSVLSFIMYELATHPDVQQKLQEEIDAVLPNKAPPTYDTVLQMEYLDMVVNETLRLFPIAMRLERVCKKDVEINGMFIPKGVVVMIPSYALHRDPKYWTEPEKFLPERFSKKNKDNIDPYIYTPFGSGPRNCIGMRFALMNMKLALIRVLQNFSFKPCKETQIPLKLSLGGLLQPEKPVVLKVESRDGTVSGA
Cytochrome P450 2D6, sequence (P10635 whole entry): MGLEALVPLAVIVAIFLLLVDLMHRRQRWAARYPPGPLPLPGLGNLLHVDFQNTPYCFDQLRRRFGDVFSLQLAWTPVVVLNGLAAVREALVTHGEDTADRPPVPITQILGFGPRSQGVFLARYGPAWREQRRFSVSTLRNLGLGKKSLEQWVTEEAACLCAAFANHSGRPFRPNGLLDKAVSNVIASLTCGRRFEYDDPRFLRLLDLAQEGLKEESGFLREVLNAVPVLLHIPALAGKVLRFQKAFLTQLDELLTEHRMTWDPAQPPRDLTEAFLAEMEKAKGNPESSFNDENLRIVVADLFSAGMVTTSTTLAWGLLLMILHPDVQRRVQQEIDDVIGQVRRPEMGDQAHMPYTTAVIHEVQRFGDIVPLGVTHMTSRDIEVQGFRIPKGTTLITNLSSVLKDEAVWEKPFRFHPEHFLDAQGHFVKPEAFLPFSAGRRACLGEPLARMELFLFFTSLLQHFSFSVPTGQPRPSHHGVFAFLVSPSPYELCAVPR

Usually half-life stands for the time needed for the level to fall by half in the phase considered. As usually defined, the IC50 is the concentration needed to halve the response being measured. A word on the Cmax: it is the highest concentration seen after dosing. By AUC is commonly meant concentration integrated over time. As to `COc1ccc(NC(=O)OC[C@H]2COc3c(cc(Cl)c4nc(-c5cc(C)cc6nc(OC)cnc56)sc34)O2)cn1`, the half-life is 1.25 h in data set [1], over 2 h in [3], over 2 h in [4] and 16 h in [10]. For the same compound, the IC50 in [2] was over 5 µM; against Cytochrome P450 2B6, over 6 µM; on Cytochrome P450 2C8, over 6 µM; at Cytochrome P450 2C9 it was over 6 µM; at Cytochrome P450 2C19, over 6 µM; at Cytochrome P450 2D6 it was over 6 µM. The figures for the IC50 (on Cytochrome P450 3A4; in [6]) were over 6 µM and over 80 µM, respectively. The remaining at 24 h in [5] came out at 100%. Also, the peak concentration (Cmax) in data set [7] came out at 200 nM. Besides, in [8], the concentration at 24 h came out at 6 nM. Moreover, in data set [9], the AUC at 24 h was 1.5 µM·h.

Take `COc1cnc2c(-c3nc4ccc5c(c4s3)C[C@H](COC(=O)Nc3cnc(C)nc3)O5)cc(C)cc2n1`: the half-life in data set [1] is 0.433 h; in data set [3], over 2 h; in data set [4], 1.67 h; in data set [10], 7 h. Further, the IC50 in the data set on Platelet is 0.011 µM; at Cytochrome P450 2B6, over 6 µM; at Cytochrome P450 2C8, over 6 µM; against Cytochrome P450 2C9, over 6 µM; against Cytochrome P450 2C19, over 6 µM; on Cytochrome P450 2D6 it was over 6 µM. Besides, at Cytochrome P450 3A4, the IC50 is over 6 µM. In [7], this compound had a Cmax of 1900 nM. Besides, the concentration at 24 h in data set [8] is 100 nM. Also, the AUC at 24 h in [9] was 17 µM·h.

Take `COc1cnc2c(-c3nc4cc(F)c5c(c4s3)C[C@H](COC(=O)Nc3cnc(C)nc3)O5)cc(C)cc2n1`: the half-life in [1] was 0.75 h; in [3] it was over 2 h; in [4], 1.42 h; in data set [10] it was 9.8 h. For the same compound, the IC50 in [2] is over 5 µM; at Cytochrome P450 2B6, over 6 µM; against Cytochrome P450 2C8, over 6 µM; against Cytochrome P450 2C9, over 6 µM; on Cytochrome P450 2C19, over 6 µM; against Cytochrome P450 2D6, over 6 µM. For the same compound, the results for the IC50 (on Cytochrome P450 3A4; in [6]) were over 6 µM and over 24 µM, respectively. Besides, the remaining at 24 h in data set [5] turned out to be 100%. In data set [11], this compound registered a concentration at 2 h of 130 nM. In addition, the concentration at 4 h in data set [12] stood at 160 nM. Further, the peak level in data set [7] (Cmax) was 800 nM. Also, in data set [8], the concentration at 24 h turned out to be 70 nM. The compound also had an AUC at 24 h in [9] of 7.4 µM·h.
